# Where a name gives a salt, the structure may show the parent alone.
# Assay: Aqueous solubility of amorphous vs crystalline lercanidipine hydrochloride
# Assay type: physicochemical
# Conditions: water, stirring at 27-28° C. for 24 hr, filtered, HPLC
# Experimental: The aqueous solubility of amorphous lercanidipine hydrochloride, was compared to the solubility of crystalline lercanidipine hydrochloride. The solubility of the respective samples was determined by suspending 20-30 mg of sample test was in 10 mL water and stirring at 27-28° C. for 24 hr. The sample was then filtered through a PVDF filter (0.2 micron) and the solution diluted with acetonitrile and analyzed by HPLC.
row,SMILES,SOLUBILITY
1,"COC(=O)C1=C(C)NC(C)=C(C(=O)OC(C)(C)CN(C)CCC(c2ccccc2)c2ccccc2)C1c1cccc([N+](=O)[O-])c1 (stereo not drawn) [Amorphous lercanidipine HCl (Example 2), methyl 1,1,N-trimethyl-N-(3,3-diphenylpropyl)-2-aminoethyl 1,4-dihydro-2,6-dimethyl-4-(3-nitrophenyl)pyridine-3,5-dicarboxylate]",1.5 mg/L
2,"COC(=O)C1=C(C)NC(C)=C(C(=O)OC(C)(C)CN(C)CCC(c2ccccc2)c2ccccc2)C1c1cccc([N+](=O)[O-])c1 (stereo not drawn) [Crystalline lercanidipine HCl (Form I), methyl 1,1,N-trimethyl-N-(3,3-diphenylpropyl)-2-aminoethyl 1,4-dihydro-2,6-dimethyl-4-(3-nitrophenyl)pyridine-3,5-dicarboxylate, reference compound]",0.65 mg/L
3,"COC(=O)C1=C(C)NC(C)=C(C(=O)OC(C)(C)CN(C)CCC(c2ccccc2)c2ccccc2)C1c1cccc([N+](=O)[O-])c1 (stereo not drawn) [Amorphous lercanidipine HCl (Example 1), methyl 1,1,N-trimethyl-N-(3,3-diphenylpropyl)-2-aminoethyl 1,4-dihydro-2,6-dimethyl-4-(3-nitrophenyl)pyridine-3,5-dicarboxylate]",1.5 mg/L

# Reference: US7820701B2, “Amorphous lercanidipine hydrochloride and uses thereof” (Recordati Ireland Limited, priority 2005, dated 2010)
